Results as given in article PMC7007966 (Journal of medicinal chemistry, 2019).
Entries after “also recorded” stand apart in the source; their conditions may differ.

Tests used:
[1] = target: T1, rat DOR (C6-DOR membranes) (Rattus norvegicus, UniProt P33533); conditions: [35S]-GTPγS stimulation relative to DPDPE; cited from earlier work
[2] = target: T2, rat MOR (C6-MOR membranes) (Rattus norvegicus, UniProt P33535); assay: Radioligand competition binding, [3H]-diprenorphine displacement; conditions: ratio of binding affinities; 1A-D, 2B, 2D previously reported compounds
[3] = target: T1, rat DOR (C6-DOR membranes); assay: [35S]-GTPγS binding assay; assay type: biochemical; conditions: for DOR efficacy (in words): [35S]-GTPγS stimulation relative to DPDPE at 10 μM
[4] = target: T2, rat MOR (C6-MOR membranes); assay: [35S]-GTPγS binding assay; assay type: biochemical; conditions: [35S]-GTPγS stimulation relative to DAMGO
[5] = target: T3, human KOR (CHO-KOR membranes) (Homo sapiens, UniProt P41145); assay: [35S]-GTPγS binding assay; assay type: biochemical; conditions: [35S]-GTPγS stimulation relative to U69,593 at 10 μM
[6] = target: T3, human KOR (CHO-KOR membranes); assay: Radioligand competition binding, [3H]-diprenorphine displacement; conditions: competitive displacement of [3H]-diprenorphine, membrane preparations

SMILES	DOR efficacy (in words) [3]	MOR efficacy (in words) [4]	also measured
Cc1cc(O)cc(C)c1C[C@H](N)C(=O)N[C@@H]1CCNc2ccc(Cc3ccccc3)cc21.O=C(O)C(F)(F)F [Compound 1A]	–	–	DOR efficacy (in words), previously reported compounds [1]: low DOR agonist activity
Cc1cc(O)cc(C)c1C[C@H](N)C(=O)N[C@@H]1CCNc2ccc(Cc3ccc4ccccc4c3)cc21.O=C(O)C(F)(F)F [Compound 1B]	–	–	selectivity for MOR over DOR (DOR Ki/MOR Ki) [2]: 100 fold
Cc1cc(O)cc(C)c1C[C@H](N)C(=O)N[C@@H]1CCNc2ccc(Cc3cc4ccccc4o3)cc21.O=C(O)C(F)(F)F [Compound 1F]	DOR antagonists	MOR agonists	–
CC(=O)N1CC[C@@H](NC(=O)[C@@H](N)Cc2c(C)cc(O)cc2C)c2cc(Cc3ccccc3)ccc21.O=C(O)C(F)(F)F [Compound 2A]	–	–	DOR efficacy (in words), previously reported compounds [1]: significant efficacy at DOR
CC(=O)N1CC[C@@H](NC(=O)[C@@H](N)Cc2c(C)cc(O)cc2C)c2cc(Cc3ccc4ccccc4c3)ccc21.O=C(O)C(F)(F)F [Compound 2B]	–	–	DOR efficacy (in words), previously reported compounds [1]: DOR antagonist profile
CC(=O)N1CC[C@@H](NC(=O)[C@@H](N)Cc2c(C)cc(O)cc2C)c2cc(Cc3cnc4ccccc4c3)ccc21.O=C(O)C(F)(F)F [Compound 2C]	significant efficacy at DOR	–	–
CC(=O)N1CC[C@@H](NC(=O)[C@@H](N)Cc2c(C)cc(O)cc2C)c2cc(CN3CCc4ccccc4C3)ccc21.O=C(O)C(F)(F)F [Compound 2D]	–	–	KOR efficacy (in words) [5]: relatively high KOR affinity and efficacy; KOR affinity (in words) [6]: relatively high KOR affinity
CC(=O)N1CC[C@@H](NC(=O)[C@@H](N)Cc2c(C)cc(O)cc2C)c2cc(Cc3cc4ccccc4o3)ccc21.O=C(O)C(F)(F)F [Compound 2F]	significant efficacy at DOR; also recorded: DOR partial agonists	MOR agonists	–
Cc1cc(O)cc(C)c1C[C@H](N)C(=O)N[C@@H]1CCN(C(=O)C2CC2)c2ccc(Cc3ccccc3)cc21.O=C(O)C(F)(F)F [Compound 3A]	significant efficacy at DOR	–	–
Cc1cc(O)cc(C)c1C[C@H](N)C(=O)N[C@@H]1CCN(C(=O)C2CC2)c2ccc(Cc3ccc4ccccc4c3)cc21.O=C(O)C(F)(F)F [Compound 3B]	significant efficacy at DOR	–	–
Cc1cc(O)cc(C)c1C[C@H](N)C(=O)N[C@@H]1CCN(C(=O)C2CC2)c2ccc(Cc3cnc4ccccc4c3)cc21.O=C(O)C(F)(F)F [Compound 3C]	significant efficacy at DOR	–	DOR agonist potency (in words) ([3]; [35S]-GTPγS stimulation): subnanomolar
Cc1cc(O)cc(C)c1C[C@H](N)C(=O)N[C@@H]1CCN(C(=O)C2CC2)c2ccc(Cc3cc4ccccc4o3)cc21.O=C(O)C(F)(F)F [Compound 3F]	significant efficacy at DOR; also recorded: DOR partial agonists	MOR agonists	–
Cc1cc(O)cc(C)c1C[C@H](N)C(=O)N[C@@H]1CCN(S(C)(=O)=O)c2ccc(Cc3ccccc3)cc21.O=C(O)C(F)(F)F [Compound 4A]	partial DOR agonism	–	–
Cc1cc(O)cc(C)c1C[C@H](N)C(=O)N[C@@H]1CCN(S(C)(=O)=O)c2ccc(CN3CCc4ccccc4C3)cc21.O=C(O)C(F)(F)F [Compound 4D]	–	–	KOR efficacy (in words) [5]: relatively high KOR affinity and efficacy; KOR affinity (in words) [6]: relatively high KOR affinity
Cc1cc(O)cc(C)c1C[C@H](N)C(=O)N[C@@H]1CCN(S(C)(=O)=O)c2ccc(Cc3cc4ccccc4o3)cc21.O=C(O)C(F)(F)F [Compound 4F]	DOR antagonists	MOR agonists	–
Cc1cc(O)cc(C)c1C[C@H](N)C(=O)N[C@@H]1CCN(C(=O)c2ccccc2)c2ccc(Cc3ccc4ccccc4c3)cc21.O=C(O)C(F)(F)F [Compound 5B]	–	partial MOR efficacy	–
Cc1cc(O)cc(C)c1C[C@H](N)C(=O)N[C@@H]1CCN(C(=O)c2ccccc2)c2ccc(Cc3cnc4ccccc4c3)cc21.O=C(O)C(F)(F)F [Compound 5C]	–	partial MOR efficacy	–
Cc1cc(O)cc(C)c1C[C@H](N)C(=O)N[C@@H]1CCN(C(=O)c2ccccc2)c2ccc(Cc3ccc4c(c3)OCCO4)cc21.O=C(O)C(F)(F)F [Compound 5E]	–	no significant MOR efficacy	–
Cc1cc(O)cc(C)c1C[C@H](N)C(=O)N[C@@H]1CCN(C(=O)c2ccccc2)c2ccc(Cc3cc4ccccc4o3)cc21.O=C(O)C(F)(F)F [Compound 5F]	DOR antagonist	MOR partial agonist	–
